Experimental data published in patent US20230357269A1 (LES LABORATOIRES SERVIER, priority 2020, published 2023).

biological target: human recombinant LRRK2 protein (Homo sapiens (Human), UniProt Q5S007); assay: LRRK2 Kinase Activity Assay (ADP-Glo); format: biochemical; conditions: LRRK2 wt; LRRKtide peptide and ATP substrates; 1h-incubation at 37° C.
Experimental: LRRK2 Kinase reactions were carried out in 384-well white polystyrene plates in a final volume of 6 μl using ADP-Glo™ Kinase Assay kit (Promega Corp.). Compound and substrates (LRRKtide peptide and ATP) in assay buffer were first dispensed in wells. Kinase reaction was then started by the addition of human recombinant LRRK2 protein. After 1h-incubation at 37° C., the enzymatic reaction was stopped by the addition of 6 μl of ADP-Glo Reagent-1 and an additional 40-minutes incubation at 23° C. (residual ATP depletion). A final 30-minutes incubation after 12 μL reagent-2 addition (ADP to ATP conversion and luciferin/luciferase reaction) was performed before luminescent signal acquisition (EnVision™ multimode plate reader-PerkinElmer, Inc.). Data from 10 individual concentrations of tested compounds (N=2) were fitted (XLfit™-ID Business Solutions Ltd) to deliver IC50s (compound concentration leading to 50% inhibition of reference enzymatic activity).
The compounds are dissolved to 5 mM in DMSO. When needed, solutions are sonicated in a bath sonicator.
Table 2 provides the IC50 values of the compounds according to the invention, obtained using the above-mentioned kinase assay. Activities are represented as +++, ++ and +, having the following meanings: • +++ means IC50<10 nM • ++ means 10 nM≤IC50<100 nM • + means 100 nM≤IC50<1 μM.

human recombinant LRRK2 protein, sequence (Q5S007 whole entry): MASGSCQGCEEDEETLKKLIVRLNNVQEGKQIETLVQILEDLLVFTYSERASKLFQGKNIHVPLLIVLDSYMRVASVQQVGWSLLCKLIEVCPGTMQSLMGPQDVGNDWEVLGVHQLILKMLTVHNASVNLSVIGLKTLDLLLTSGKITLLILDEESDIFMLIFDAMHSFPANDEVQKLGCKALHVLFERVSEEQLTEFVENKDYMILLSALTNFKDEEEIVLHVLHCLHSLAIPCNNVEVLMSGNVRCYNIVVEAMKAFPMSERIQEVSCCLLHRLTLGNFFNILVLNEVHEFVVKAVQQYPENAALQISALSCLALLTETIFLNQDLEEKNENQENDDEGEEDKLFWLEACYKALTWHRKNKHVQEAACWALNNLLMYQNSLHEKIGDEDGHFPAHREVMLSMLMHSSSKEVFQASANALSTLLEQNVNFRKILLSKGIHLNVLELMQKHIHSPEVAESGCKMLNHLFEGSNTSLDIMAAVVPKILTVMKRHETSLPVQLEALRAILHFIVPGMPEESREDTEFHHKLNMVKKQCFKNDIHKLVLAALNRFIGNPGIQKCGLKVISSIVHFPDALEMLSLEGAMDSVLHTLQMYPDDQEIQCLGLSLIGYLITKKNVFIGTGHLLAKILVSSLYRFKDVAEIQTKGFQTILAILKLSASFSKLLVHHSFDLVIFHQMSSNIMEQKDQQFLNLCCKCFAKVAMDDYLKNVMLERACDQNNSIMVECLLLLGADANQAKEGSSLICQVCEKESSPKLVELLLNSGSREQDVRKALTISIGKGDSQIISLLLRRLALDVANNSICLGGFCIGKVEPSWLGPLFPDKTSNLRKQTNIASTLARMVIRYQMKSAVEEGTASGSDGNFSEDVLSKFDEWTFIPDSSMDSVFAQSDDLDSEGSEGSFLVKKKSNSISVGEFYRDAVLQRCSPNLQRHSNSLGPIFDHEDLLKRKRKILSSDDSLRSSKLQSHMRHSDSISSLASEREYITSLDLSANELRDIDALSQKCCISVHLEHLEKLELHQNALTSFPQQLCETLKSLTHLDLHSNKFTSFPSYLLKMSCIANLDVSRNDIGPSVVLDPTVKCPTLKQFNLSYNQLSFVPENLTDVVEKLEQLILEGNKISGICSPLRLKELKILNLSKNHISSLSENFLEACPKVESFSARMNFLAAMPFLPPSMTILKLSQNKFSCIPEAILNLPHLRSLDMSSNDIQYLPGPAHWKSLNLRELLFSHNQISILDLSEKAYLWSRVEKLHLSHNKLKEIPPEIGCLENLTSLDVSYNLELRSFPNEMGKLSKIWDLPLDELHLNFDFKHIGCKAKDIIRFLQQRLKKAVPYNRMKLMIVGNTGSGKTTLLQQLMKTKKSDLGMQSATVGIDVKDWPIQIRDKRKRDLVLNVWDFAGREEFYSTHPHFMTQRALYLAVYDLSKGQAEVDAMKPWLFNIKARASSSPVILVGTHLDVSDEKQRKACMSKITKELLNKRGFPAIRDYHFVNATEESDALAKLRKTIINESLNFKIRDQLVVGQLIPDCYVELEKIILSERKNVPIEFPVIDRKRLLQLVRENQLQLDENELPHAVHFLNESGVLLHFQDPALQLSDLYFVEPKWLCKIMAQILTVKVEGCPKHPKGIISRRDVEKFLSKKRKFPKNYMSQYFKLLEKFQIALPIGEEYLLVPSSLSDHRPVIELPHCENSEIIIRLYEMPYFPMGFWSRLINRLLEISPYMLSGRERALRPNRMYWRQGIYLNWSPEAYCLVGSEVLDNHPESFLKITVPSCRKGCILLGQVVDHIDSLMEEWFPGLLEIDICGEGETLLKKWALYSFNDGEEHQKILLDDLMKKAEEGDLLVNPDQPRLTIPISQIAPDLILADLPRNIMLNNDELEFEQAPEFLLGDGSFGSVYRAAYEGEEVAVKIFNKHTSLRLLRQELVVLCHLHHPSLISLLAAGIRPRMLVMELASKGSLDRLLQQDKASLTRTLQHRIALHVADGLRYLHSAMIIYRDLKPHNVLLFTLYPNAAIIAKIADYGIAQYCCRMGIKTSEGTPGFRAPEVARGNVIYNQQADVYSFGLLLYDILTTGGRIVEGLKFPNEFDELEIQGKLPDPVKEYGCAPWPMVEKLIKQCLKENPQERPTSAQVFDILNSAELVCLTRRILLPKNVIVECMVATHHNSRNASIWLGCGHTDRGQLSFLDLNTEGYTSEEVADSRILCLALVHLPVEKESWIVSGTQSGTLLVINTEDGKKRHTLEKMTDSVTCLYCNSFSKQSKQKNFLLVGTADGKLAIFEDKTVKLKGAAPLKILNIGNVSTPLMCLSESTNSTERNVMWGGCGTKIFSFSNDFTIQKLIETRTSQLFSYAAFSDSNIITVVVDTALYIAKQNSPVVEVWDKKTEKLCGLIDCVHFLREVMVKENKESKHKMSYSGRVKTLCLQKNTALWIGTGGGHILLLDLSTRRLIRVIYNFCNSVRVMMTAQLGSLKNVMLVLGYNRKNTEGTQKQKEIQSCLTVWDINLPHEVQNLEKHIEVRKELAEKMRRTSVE

| IC50 | Structure (SMILES) |
| --- | --- |
| < 10 nM | CN1CCN(c2cc3cc(c2)-c2n[nH]c4ccc(cc24)OCCCNC(=O)OC3)CC1 [Example 31, 4-(4-methylpiperazin-1-yl)-8,14-dioxa-10,19,20-triazatetracyclo[13.5.2.1^2,6.0^18,21]tricosa-1(20),2,4,6(23),15,17,21-heptaen-9-one] |
| < 10 nM | C[C@@H]1CCNC(=O)OCc2cccc(c2)-c2n[nH]c3cnc(cc23)O1 [Example 162, (13R)-13-methyl-8,14-dioxa-10,16,19,20-tetraazatetracyclo[13.5.2.1^2,6.0^18,21]tricosa-1(20),2(23),3,5,15(22),16,18(21)-heptaen-9-one] |
| < 10 nM | CC1CCCN(c2cc3cc(c2)-c2n[nH]c4ccc(cc24)OCCCNC(=O)OC3)C1 (centres unmarked) [Example 58, 4-(3-methylpiperidin-1-yl)-8,14-dioxa-10,19,20-triazatetracyclo[13.5.2.1^2,6.0^18,21]tricosa-1(20),2,4,6(23),15,17,21-heptaen-9-one] |
| < 10 nM | C[C@@H]1CCNC(=O)OCc2cccc(c2)-c2n[nH]c3ccc(cc23)O1 [Example 63, (13R)-13-methyl-8,14-dioxa-10,19,20-triazatetracyclo[13.5.2.1^2,6.0^18,21]tricosa-1(20),2(23),3,5,15(22),16,18(21)-heptaen-9-one] |
| < 10 nM | CCC1OC(=O)NCCCOc2ccc3[nH]nc(c3c2)-c2cccc1c2 (single isomer, unassigned) [Example 116, (7R)- or (7S)-7-ethyl-8,14-dioxa-10,19,20-triazatetracyclo[13.5.2.1^2,6.0^18,21]tricosa-1(20),2,4,6(23),15,17,21-heptaen-9-one] |
| < 10 nM | C[C@@H]1CCNC(=O)O[C@H](C)c2cncc(n2)-c2n[nH]c3ccc(cc23)O1 [Example 155, (7R,13R)-7,13-dimethyl-8,14-dioxa-4,10,19,20,23-pentaazatetracyclo[13.5. 2.1^2,6.0^18,21]tricosa-1(20),2(23),3,5,15(22),16,18(21)-heptaen-9-one] |
| < 10 nM | CO[C@@H]1CCN(c2cc3nc(n2)COC(=O)NCC[C@@H](C)Oc2ccc4[nH]nc-3c4c2)C1 [Example 137, (13R)-4-[(3R)-3-methoxypyrrolidin-1-yl]-13-methyl-8,14-dioxa-5,10,19,20,23-pentaazatetracyclo[13.5.2.1^2,6.0^18,21]tricosa-1(20),2,4,6(23),15,17,21-heptaen-9-one] |
| < 10 nM | CC(C)Oc1cc2cc(c1)-c1n[nH]c3ccc(cc13)OCCCNC(=O)OC2 [Example 55, 4-(propan-2-yloxy)-8,14-dioxa-10,19,20-triazatetracyclo[13.5.2.1^2,6.0^18,21]tricosa-1(20),2,4,6(23),15,17,21-heptaen-9-one] |
| < 10 nM | COc1ncc2cc1COC(=O)NCC[C@@H](C)Oc1ccc3[nH]nc-2c3c1 [Example 143, (13R)-5-methoxy-13-methyl-8,14-dioxa-4,10,19,20-tetraazatetracyclo[13.5.2.1^2,6.0^18,21]tricosa-1(20),2,4,6(23),15,17,21-heptaen-9-one] |
| < 10 nM | O=C1NCCCOc2ccc3[nH]nc(c3c2)-c2cc(F)cc(c2)CO1 [Example 3, 4-fluoro-8,14-dioxa-10,19,20-triazatetracyclo[13.5.2.1^2,6.0^18,21]tricosa-1(20), 2,4,6(23),15,17,21-heptaen-9-one] |

Continued, compound first:

| Structure (SMILES) | IC50 |
| --- | --- |
| COc1ccc2cc1COC(=O)NCCCOc1ccc3[nH]nc-2c3c1 [Example 19, 5-methoxy-8,14-dioxa-10,19,20-triazatetracyclo[13.5.2.1^2,6.0^18,21]tricosa-1(20),2,4,6(23),15,17,21-heptaen-9-one] | < 10 nM |
| COc1cc2cc(c1)-c1n[nH]c3ccc(cc13)OCCCNC(=O)OC2 [Example 8, 4-methoxy-8,14-dioxa-10,19,20-triazatetracyclo[13.5.2.1^2,6.0^18,21]tricosa-1(20),2,4,6(23),15,17,21-heptaen-9-one] | < 10 nM |
| O=C1OC2CN1CCCOc1ccc3[nH]nc(c3c1)-c1cccc2c1 (centres unmarked) [Example 91, 8,14-dioxa-10,19,20-triazapentacyclo[13.5.2.1^2,6.1^7,10.0^18,21]tetracosa-1(20),2(24),3,5,15(22),16,18(21)-heptaen-9-one] | < 10 nM |
| CN(C)Cc1cc2cc(c1)-c1n[nH]c3ccc(cc13)OCCCNC(=O)OC2 [Example 53, 4-[(dimethylamino)methyl]-8,14-dioxa-10,19,20-triazatetracyclo[13.5.2.1^2,6.0^18,21]tricosa-1(20),2,4,6(23),15,17,21-heptaen-9-one] | 10 to 100 nM |
| O=C1NCCCOc2ccc3[nH]nc(c3c2)-c2csc(n2)CO1 [Example 147, 7,13-dioxa-4-thia-9,18,19,22-tetraazatetracyclo[12.5.2.1^2,5.0^17,20]docosa-1(19),2,5(22),14(21),15,17(20)-hexaen-8-one] | < 10 nM |
| CC1OC(=O)NCCCOc2ccc3[nH]nc(c3c2)-c2cc(F)cc1c2 (centres unmarked) [Example 56, 4-fluoro-7-methyl-8,14-dioxa-10,19,20-triazatetracyclo[13.5.2.1^2,6.0^18,21]tricosa-1(20),2,4,6(23),15,17,21-heptaen-9-one] | < 10 nM |
| C[C@@H]1CCNC(=O)OCc2nc(cc(N3CCCC3)n2)-c2n[nH]c3ccc(cc23)O1 [Example 129, (13R)-13-methyl-4-(pyrrolidin-1-yl)-8,14-dioxa-5,10,19,20,23-pentaaza tetracyclo[13.5.2.1^2,6.0^18,21]tricosa-1(20),2,4,6(23),15,17,21-heptaen-9-one] | < 10 nM |
| O=C1NCCCOc2ccc3[nH]nc(c3c2)-c2cc(Cl)cc(c2)CO1 [Example 27, 4-chloro-8,14-dioxa-10,19,20-triazatetracyclo[13.5.2.1^2,6.0^18,21]tricosa-1(20), 2,4,6(23),15,17,21-heptaen-9-one] | < 10 nM |
| O=C1NCCCNc2ccc3[nH]nc(c3c2)-c2cccc(c2)CO1 [Example 141, 8-oxa-10,14,19,20-tetraazatetracyclo[13.5.2.1^2,6.0^18,21]tricosa-1(20),2(23), 3,5,15(22),16,18(21)-heptaen-9-one] | 100 to 1000 nM |
| O=C1NCCCOc2ccc3[nH]nc(c3c2)-c2cnn(c2)C(C2CCOCC2)CO1 (centres unmarked) [Example 118, 6-(oxan-4-yl)-8,14-dioxa-4,5,10,19,20-pentaazatetracyclo[13.5.2.1^2,5.0^18,21]tricosa-1(20),2(23),3,15,17,21-hexaen-9-one] | 100 to 1000 nM |
| O=C1NCCCOc2ccc3[nH]nc(c3c2)-c2cc(cc(C3=CCN(C4COC4)CC3)c2)CO1 [Example 57, 4-[1-(oxetan-3-yl)-1,2,3,6-tetrahydropyridin-4-yl]-8,14-dioxa-10,19,20-triazatetracyclo[13.5.2.1^2,6.0^18,21]tricosa-1(20),2,4,6(23),15,17,21-heptaen-9-one] | < 10 nM |
| CC1CCNC(=O)OCc2cccc(c2)-c2n[nH]c3ccc(cc23)O1 (centres unmarked) [Example 50, 13-methyl-8,14-dioxa-10,19,20-triazatetracyclo[13.5.2.1^2,6.0^18,21]tricosa-1(20),2,4,6(23),15,17,21-heptaen-9-one] | < 10 nM |
| O=C1NCCCOc2ccc3[nH]nc(c3c2)-c2cc(cc(N3CCOCC3)c2)CO1 [Example 16, 4-(morpholin-4-yl)-8,14-dioxa-10,19,20-triazatetracyclo[13.5.2.1^2,6.0^18,21]tricosa-1(20),2,4,6(23),15,17,21-heptaen-9-one] | < 10 nM |
| O=C1NCCCCc2ccc3[nH]nc(c3c2)-c2cccc(c2)CO1 [Example 142, 8-oxa-10,19,20-triazatetracyclo[13.5.2.1^2,6.0^18,21]tricosa-1(20),2(23),3,5, 15(22),16,18(21)-heptaen-9-one] | < 10 nM |
| CCC1OC(=O)NCCCOc2ccc3[nH]nc(c3c2)-c2cccc1c2 (centres unmarked) [Example 104, 7-ethyl-8,14-dioxa-10,19,20-triazatetracyclo[13.5.2.1^2,6.0^18,21]tricosa-1(20),2,4,6(23),15,17,21-heptaen-9-one] | 10 to 100 nM |
| O=C1NC[C@@H](F)COc2ccc3[nH]nc(c3c2)-c2cnn(n2)CCO1 [Example 174, (12R)-12-fluoro-8,14-dioxa-4,5,10,19,20,23-hexaazatetracyclo[13.5.2.1^2,5.0^18,21]tricosa-1(20),2(23),3,15,17,21-hexaen-9-one] | < 10 nM |
| O=C1NCCCOc2ccc3[nH]nc(c3c2)-c2cc(cc(C3=CCNCC3)c2)CO1 [Example 82, 4-(1,2,3,6-tetrahydropyridin-4-yl)-8,14-dioxa-10,19,20-triazatetracyclo[13.5.2.1^2,6.0^18,21]tricosa-1(20),2(23),3,5,15(22),16,18(21)-heptaen-9-one] | < 10 nM |
| C[C@@H]1CCNC(=O)OCc2cccc(n2)-c2n[nH]c3cc(F)c(cc23)O1 [Example 146, (13R)-16-fluoro-13-methyl-8,14-dioxa-10,19,20,23-tetraazatetracyclo[13.5.2.1^2,6.0^18,21]tricosa-1(20),2,4,6(23),15,17,21-heptaen-9-one] | < 10 nM |
| O=C1OC2CN1CCCOc1ccc3[nH]nc(c3c1)-c1cc(F)cc2c1 (centres unmarked) [Example 60, 4-fluoro-8,14-dioxa-10,19,20-triazapentacyclo[13.5.2.1^2,6.1^7,10.0^18,21]tetracosa-1(20),2(24),3,5,15(22),16,18(21)-heptaen-9-one] | < 10 nM |
